Columns and labels:
[1] = target: T1, GST-LXRβ ligand-binding domain (Homo sapiens, UniProt P55055, DUP175-175); assay: TR-FRETβ activity assay (LXRβ-LBD / NCoA3 coactivator peptide, prestimulated with 24(S)-25-epoxycholesterol); assay type: biochemical; parameters: key to behavior in FRET assay: ag=agonist; ia=inverse agonist; details: for EC50: 1 μM 24(S)-25-epoxycholesterol as prestimulating agonist, read-out: FRETβ activity range (EC50); for behavior in FRET assay: agonist or inverse agonist
T1 construct: amino acids 156-461; NP009052; made in house; host or cells: E. coli
T1 sequence (P55055 with tags, fused parts or gaps DUP175-175): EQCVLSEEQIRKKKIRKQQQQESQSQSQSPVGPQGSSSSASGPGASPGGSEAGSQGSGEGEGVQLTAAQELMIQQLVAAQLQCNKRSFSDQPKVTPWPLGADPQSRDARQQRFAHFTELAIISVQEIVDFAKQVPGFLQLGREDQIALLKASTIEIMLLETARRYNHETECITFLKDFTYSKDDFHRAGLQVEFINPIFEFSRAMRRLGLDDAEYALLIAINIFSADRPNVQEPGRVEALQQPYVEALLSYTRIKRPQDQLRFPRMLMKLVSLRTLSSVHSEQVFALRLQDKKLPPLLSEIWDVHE
Experimental: The tested compounds were usually dissolved, tested and stored as 20 mM stock solutions in DMSO. […] Sulfonyl acetic acid derivatives are shelf stable as solid at rt for long time as reported by Griesbrecht et al. (Synlett 2010:374) or Faucher et al. (J. Med. Chem. 2004; 47:18). TR-FRETβ Activity Assay Recombinant GST-LXRβ ligand-binding domain (LBD; amino acids 156-461; NP009052; SEQ ID NO:2) was expressed in E. coli and purified via gluthatione-sepharose affinity chromatography. N-terminally biotinylated NCoA3 coactivator peptide (SEQ ID NO:1) was chemically synthesized (Eurogentec). […] Finally, a detection mix was added containing anti GST-Tb cryptate (CisBio; 610SAXLB) and Streptavidin-XL665 (CisBio; 610SAXLB) as fluorescent donor and acceptor, respectively, as well as the coactivator peptide and LXRβ-LBD protein (SEQ ID NO:2). The reaction was mixed thoroughly, equilibrated for 1 h at 4° C. and vicinity of LXRβ and coactivator peptide was detected by measurement of fluorescence in a VictorX4 multiplate reader (PerkinElmer Life Science) using 340 nm as excitation and 615 and 665 nm as emission wavelengths. Assays were performed in triplicates. Final Assay Concentrations of Components: 240 mM KCl, 1 μg/μL BSA, 0.002% Triton-X-100, […] anti GST-Tb cryptate, 2.5 ng/μL Streptavidin-XL665, coactivator peptide (400 nM), LXRβ protein ([…], i.e. 76 nM)

LXRβ full length (FL) = target: T2, LXRβ full length (FL) (Homo sapiens, UniProt P55055, DUP175-175); assay: LXR Gal4 reporter transient transfection assay (M2H), Gal4β FL; assay type: cell-based; details: HEK293 cells; read-out: M2H Gal4β FL activity range (EC50)
T2 construct: the full length (FL) proteins of LXRα (amino acids 1-447); NP005684; NP009052; expressed in transfected cells; host or cells: HEK293
T2 sequence (P55055 with tags, fused parts or gaps DUP175-175): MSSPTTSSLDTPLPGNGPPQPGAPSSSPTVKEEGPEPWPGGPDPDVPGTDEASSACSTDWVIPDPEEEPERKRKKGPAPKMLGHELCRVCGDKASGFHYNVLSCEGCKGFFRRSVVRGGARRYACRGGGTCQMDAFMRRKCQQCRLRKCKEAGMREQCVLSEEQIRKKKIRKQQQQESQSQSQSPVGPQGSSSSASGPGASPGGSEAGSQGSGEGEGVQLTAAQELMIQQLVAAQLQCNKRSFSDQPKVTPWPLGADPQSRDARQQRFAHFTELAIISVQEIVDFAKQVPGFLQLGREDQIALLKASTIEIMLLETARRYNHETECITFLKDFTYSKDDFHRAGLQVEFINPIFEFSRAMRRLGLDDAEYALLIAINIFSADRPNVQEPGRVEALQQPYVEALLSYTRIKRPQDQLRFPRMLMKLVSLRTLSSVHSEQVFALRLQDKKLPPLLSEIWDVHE
Experimental: (§1) The tested compounds were usually dissolved, tested and stored as 20 mM stock solutions in DMSO. Since sulfonyl acetic acid derivatives tend to decarboxylate under these conditions, these stock solutions were prepared, tested and stored as 20 mM DMSO stock solutions containing 100 mM trifluoroacetic acid (5 equivalents). Sulfonyl acetic acid derivatives are shelf stable as solid at rt for long time as reported by Griesbrecht et al. (Synlett 2010:374) or Faucher et al. (J. Med. Chem. 2004; 47:18).
(§2) LXR Gal4 Reporter Transient Transfection Assays
(§3) LXRα and LXRβ activity status was determined via detection of interaction with coactivator and corepressor proteins in mammalian two-hybrid experiments (M2H). For this, via transient transfection the full length (FL) proteins of LXRα (amino acids 1-447; NP005684; SEQ ID NO:7) or LXRβ-(amino acids 1-461; NP009052; SEQ ID NO:8) or the ligand-binding domains (LBD) of LXRα (amino acids 155-447 SEQ ID NO:3) or LXRβ (amino acids 156-461; SEQ ID NO:4) were expressed from pCMV-AD (Stratagene) as fusions to the transcriptional activation domain of NFkB. As cofactors, domains of either the steroid receptor coactivator 1 (SRC1; amino acids 552-887; SEQ ID NO:5) or of the corepressor NCoR (amino acids 1903-2312 SEQ ID NO:6) were expressed as fusions to the DNA binding domain of the yeast transcription factor GAL4 (from pCMV-BD; Stratagene). Interaction was monitored via activation of a coexpressed Firefly Luciferase Reporter gene under control of a promoter containing repetitive GAL4 response elements (vector pFRLuc; Stratagene). Transfection efficiency was controlled via cotransfection of constitutively active pRL-CMV Renilla reniformis luciferase reporter (Promega). HEK293 cells were grown in minimum essential medium (MEM) with 2 mM L-glutamine and Earle's balanced salt solution supplemented with 8.3% fetal bovine serum, 0.1 mM non-essential amino acids, 1 mM sodium pyruvate, at 37° C. in 5% CO2. 3.5×10^4 cells/well were plated in 96-well cell culture plates in growth medium supplemented with 8.3% fetal bovine serum for 16-20 h to ˜90% confluency. For transfection, medium was taken off and LXR and cofactor expressing plasmids as well as the reporter plasmids are added in 30 μL OPTIMEM/well including polyethylene-imine (PEI) as vehicle. Typical amounts of plasmids transfected/well: pCMV-AD-LXR (5 ng), pCMV-BD-cofactor (5 ng), pFR-Luc (100 ng), pRL-CMV (0.5 ng). Compound stocks were prepared in DMSO, prediluted in MEM to a total volume of 120 μL, and added 4 h after addition of the transfection mixture (final vehicle concentration not exceeding 0.2%). Cells were incubated for additional 16 h, lysed for 10 min in 1× Passive Lysis Buffer (Promega) and Firefly and Renilla luciferase activities were measured sequentially in the same cell extract using buffers containing D-luciferine and coelenterazine, respectively. Measurements of luminescence were done in a BMG-Iuminometer.

LXRα full length (FL) = target: T3, LXRα full length (FL) (Homo sapiens, UniProt Q13133); assay: LXR Gal4 reporter transient transfection assay (M2H), Gal4α FL; assay type: cell-based; details: HEK293 cells; read-out: M2H Gal4α FL activity range (EC50)
T3 construct: the full length (FL) proteins of LXRα (amino acids 1-447); NP005684; expressed in transfected cells; host or cells: HEK293
T3 sequence (Q13133 1-447): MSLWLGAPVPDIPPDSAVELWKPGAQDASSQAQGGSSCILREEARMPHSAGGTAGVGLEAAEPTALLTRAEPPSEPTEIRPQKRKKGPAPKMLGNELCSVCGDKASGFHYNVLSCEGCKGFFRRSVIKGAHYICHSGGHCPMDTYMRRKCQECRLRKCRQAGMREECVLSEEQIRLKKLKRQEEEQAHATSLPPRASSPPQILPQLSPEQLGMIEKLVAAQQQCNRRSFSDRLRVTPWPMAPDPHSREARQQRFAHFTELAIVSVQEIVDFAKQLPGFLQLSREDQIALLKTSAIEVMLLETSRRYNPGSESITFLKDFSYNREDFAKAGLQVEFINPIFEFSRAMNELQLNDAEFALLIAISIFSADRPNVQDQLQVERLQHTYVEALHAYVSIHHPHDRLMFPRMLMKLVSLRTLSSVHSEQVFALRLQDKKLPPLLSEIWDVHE
Experimental: as §1, §2, §3

Structure (SMILES)	EC50 [1]	behavior in FRET assay [1]	EC50 (LXRβ full length (FL))	EC50 (LXRα full length (FL))
Cc1cc(C)c(S(=O)(=O)N(Cc2ccc(-c3cccc(S(=O)(=O)CC(=O)O)c3)cc2)Cc2ccc(C)o2)c(C)c1 [5/5]	> 10000 nM	ia	100 to 1000 nM	1000 to 10000 nM
Cc1cc(C)c(S(=O)(=O)N(Cc2ccc(C(F)(F)F)o2)Cc2sc(-c3cccc(C(C)(C)C(=O)O)c3)cc2Cl)c(C)c1 [10/6]	1000 to 10000 nM	ag	< 100 nM	100 to 1000 nM
Cc1cc(C)c(S(=O)(=O)N(Cc2ccc(-c3cccc(C(C)(C)C(=O)O)c3)cc2)c2ccc(C(F)(F)F)o2)c(C)c1 [10/7]	100 to 1000 nM	ag	< 100 nM	100 to 1000 nM
Cc1cc(C)c(S(=O)(=O)N(Cc2ccc(-c3cccc(S(=O)(=O)CC(=O)O)c3)cc2)Cc2ccc(C(F)F)o2)c(C)c1 [10/13]	1000 to 10000 nM	ia	100 to 1000 nM	1000 to 10000 nM
Cc1ccc2ccccc2c1S(=O)(=O)N(Cc1ccc(C(F)(F)F)o1)C1COc2cc(-c3cccc(C(C)(C)C(=O)O)c3)ccc21 (stereo not shown) [10/14]	100 to 1000 nM	ia	< 100 nM	< 100 nM
Cc1ccc2ncccc2c1S(=O)(=O)N(Cc1ccc(-c2cccc(C(C)(C)C(=O)O)c2)cc1)Cc1ccc(C(F)(F)F)o1 [10/15]	< 100 nM	ia	< 100 nM	< 100 nM
Cc1ccc2ccccc2c1S(=O)(=O)N(Cc1ccc(-c2cccc(C(C)(C)C(=O)O)c2)cc1)Cc1cc2ccccc2o1 [10/17]	1000 to 10000 nM	ia	< 100 nM	100 to 1000 nM
Cc1sc2ccccc2c1S(=O)(=O)N(Cc1ccc(-c2cccc(C(C)(C)C(=O)O)c2)cc1)Cc1ccc(C(F)(F)F)o1 [10/18]	< 100 nM	ia	< 100 nM	< 100 nM
COc1ccc2cccnc2c1S(=O)(=O)N(Cc1ccc(-c2cccc(C(C)(C)C(=O)O)c2)cc1)Cc1ccc(C(F)(F)F)o1 [10/19]	100 to 1000 nM	ag	< 100 nM	< 100 nM
Cc1nn2cccnc2c1S(=O)(=O)N(Cc1ccc(-c2cccc(C(C)(C)C(=O)O)c2)cc1)Cc1ccc(C(F)(F)F)o1 [10/20]	100 to 1000 nM	ag	< 100 nM	100 to 1000 nM
COc1cccc(CN(Cc2ccc(-c3cccc(S(=O)(=O)CC(=O)O)c3)cc2)S(=O)(=O)c2c(C)cc(C)cc2C)c1 [11/3]	> 10000 nM	ia	1000 to 10000 nM	1000 to 10000 nM

Continued, values first:

EC50 [1]	behavior in FRET assay [1]	EC50 (LXRβ full length (FL))	EC50 (LXRα full length (FL))	Structure (SMILES)
1000 to 10000 nM	ia	100 to 1000 nM	1000 to 10000 nM	Cc1cc(F)cc(C)c1S(=O)(=O)N(Cc1ccc(-c2cccc(S(=O)(=O)CC(=O)O)c2)cc1)Cc1ccc(C(F)(F)F)o1 [10/2]
1000 to 10000 nM	ag	100 to 1000 nM	1000 to 10000 nM	O=C(O)CS(=O)(=O)c1cccc(-c2ccc(CN(Cc3ccc(C(F)(F)F)o3)S(=O)(=O)c3c(Cl)cccc3C(F)(F)F)cc2)c1 [10/3]
1000 to 10000 nM	ag	1000 to 10000 nM	1000 to 10000 nM	COc1cc(C)cc(C)c1S(=O)(=O)N(Cc1ccc(-c2cccc(S(=O)(=O)CC(=O)O)c2)cc1)Cc1ccc(C(F)(F)F)o1 [10/8]
1000 to 10000 nM	ia	100 to 1000 nM	1000 to 10000 nM	O=C(O)CS(=O)(=O)c1cccc(-c2ccc(CN(Cc3ccc(C(F)(F)F)o3)S(=O)(=O)c3cccc4ccccc34)cc2)c1 [10/9]
1000 to 10000 nM	ia	100 to 1000 nM	100 to 1000 nM	COc1ccc(S(=O)(=O)N(Cc2ccc(-c3cccc(S(=O)(=O)CC(=O)O)c3)cc2)Cc2ccc(C(F)(F)F)o2)c2c1CCCC2 [10/10]
1000 to 10000 nM	ag	100 to 1000 nM	1000 to 10000 nM	Cc1ccc2cccnc2c1S(=O)(=O)N(Cc1ccc(-c2cccc(S(=O)(=O)CC(=O)O)c2)cc1)Cc1ccc(C(F)(F)F)o1 [10/11]
1000 to 10000 nM	ia	100 to 1000 nM	1000 to 10000 nM	Cc1ccc(S(=O)(=O)N(Cc2ccc(-c3cccc(S(=O)(=O)CC(=O)O)c3)cc2)Cc2ccc(C(F)(F)F)o2)c(C)c1 [10/12]
> 10000 nM	ia	100 to 1000 nM	1000 to 10000 nM	Cc1ccc2ccccc2c1S(=O)(=O)N(Cc1ccc(-c2cccc(S(=O)(=O)CC(=O)O)c2)cc1)Cc1cc(C(F)(F)F)co1 [10/16]

From patent US20200115357A1, “LIVER X RECEPTORS (LXR) MODULATORS” (Phenex-FXR GmbH, priority 2017, published 2020)
